The assay deals with BDF1 mice, P388 leukemia ip, median survival T/C. Kind of assay: NCI In Vivo Anticancer Drug Screen. Data for tumor model P388 Leukemia (intraperitoneal) in B6D2F1 (BDF1) mice. To be noted: endpoint: median survival time, higher = longer survival. Summed up:
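Each value expresses how treatment altered survival: treated-mouse outcome over vehicle-mouse outcome, both groups bearing the transplanted tumour.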

Setting [1] is: dose: 50.0 mg/kg/injection, schedule: Q01DX009 (ip), vehicle: saline with Tween-80.
[2] abbreviates: dose: 100.0 mg/kg/injection, schedule: Q01DX009 (ip), vehicle: saline with Tween-80.
The mark [3] stands for this setting: dose: 200.0 mg/kg/injection, schedule: Q01DX009 (ip), vehicle: saline with Tween-80.
[4] abbreviates: dose: 50.0 mg/kg/injection, schedule: Q01DX009 (ip), vehicle: saline.
The mark [5] stands for this setting: dose: 100.0 mg/kg/injection, schedule: Q01DX009 (ip), vehicle: saline.
Setting [6] is: dose: 200.0 mg/kg/injection, schedule: Q01DX009 (ip), vehicle: saline.
The mark [7] stands for this setting: dose: 100.0 mg/kg/injection, schedule: Q04DX003 (ip), vehicle: saline with Tween-80.
[8] abbreviates: dose: 200.0 mg/kg/injection, schedule: Q04DX003 (ip), vehicle: saline with Tween-80.
Where [9] appears, read: dose: 100.0 mg/kg/injection, schedule: Q01DX009 (ip), vehicle: Klucel (hydroxypropylcellulose) (HPC).
[10] abbreviates: dose: 200.0 mg/kg/injection, schedule: Q01DX009 (ip), vehicle: Klucel (hydroxypropylcellulose) (HPC).
Where [11] appears, read: dose: 100.0 mg/kg/injection, schedule: Q04DX003 (ip), vehicle: Klucel (hydroxypropylcellulose) (HPC).

Inconclusive results and toxic doses are left out. Positions of bridges follow the written chain, without caps; N, C: chain ends. Non-standard residues stand in square brackets, D forms with d. Residues, ends and D or L forms follow the SMILES beside them. Aib = CC(C)(N)C(=O)O

This passage reports T/C results from PubChem BioAssay AID328 (DTP/NCI, 2004).

For the compound `CC(C)CC1NC(=O)CNC(=O)C(C)(C)NC(=O)C(C(C)C)NC(=O)C(C)(C)NC(=O)C(CCC(N)=O)NC(=O)C(C)NC(=O)C(C)(C)NC(=O)C(C)NC(=O)C(C)(C)NC(=O)C2CCCN2C(=O)CCC(C(=O)NC(CCC(N)=O)C(=O)O)NC(=O)C(C)(C)NC(=O)C(C)(C)NC(=O)C(C(C)C)NC(=O)C2CCCN2C(=O)C(C)(C)NC1=O` (stereo not given) (P[Aib]A[Aib]AQ[Aib]V[Aib]GL[Aib]PV[Aib][Aib]EQ-OH; lactam N-17; configuration not given here), the T/C was 118 % of control (dose: 1.25 mg/kg/injection, schedule: Q01DX009 (ip), vehicle: water) and 102 % of control (dose: 2.5 mg/kg/injection, schedule: Q01DX009 (ip), vehicle: water).

As to `Cc1ccc(S(=O)(=O)/N=C/NN(C)C)cc1`, the T/C by setting is: under setting [1], 97 % of control; under setting [2], 112 % of control; under setting [3], 98 % of control.

Consider `CCCOc1cc([N+](=O)[O-])cc([N+](=O)[O-])c1`, for which the T/C runs as follows: (dose: 100.0 mg/kg/injection, schedule: Q01DX001 (ip), vehicle: saline with Tween-80) 104 % of control; (dose: 200.0 mg/kg/injection, schedule: Q01DX001 (ip), vehicle: saline with Tween-80) 94 % of control.

Consider `COC1=C(C2=C(OC)C(=O)c3cc4oc(C)cc(=O)c4c(O)c3C2=O)C(=O)c2c(cc3oc(C)cc(=O)c3c2O)C1=O`, for which the T/C runs as follows: (dose: 0.37 mg/kg/injection, schedule: Q01DX009 (ip), vehicle: saline) 99 % of control; (dose: 0.75 mg/kg/injection, schedule: Q01DX009 (ip), vehicle: saline) 105 % of control; (dose: 1.5 mg/kg/injection, schedule: Q01DX009 (ip), vehicle: saline) 111 % of control; (dose: 3.0 mg/kg/injection, schedule: Q01DX009 (ip), vehicle: saline) 101 % of control.

As for `N#CC1=C(N)CCCC1`, the T/C is 97 % of control under setting [4], 99 % of control under setting [5] and 102 % of control under setting [6].

For `C=C1C(=O)O[C@H]2[C@H]1[C@H](OC(=O)/C(C)=C\C)C[C@]1(CO1)[C@@H]1[C@H](OC(C)=O)C=C(C)[C@]21O`, the T/C is, setting by setting: (dose: 10.0 mg/kg/injection, schedule: Q01DX010 (ip), vehicle: steriod suspending solution) 100 % of control; (dose: 20.0 mg/kg/injection, schedule: Q01DX010 (ip), vehicle: steriod suspending solution) 109 % of control; (dose: 40.0 mg/kg/injection, schedule: Q01DX010 (ip), vehicle: steriod suspending solution) 118 % of control.

`CCCCN1CCNCC1`: the T/C is, setting by setting: (dose: 50.0 mg/kg/injection, schedule: Q04DX003 (ip), vehicle: saline) 95 % of control; (dose: 100.0 mg/kg/injection, schedule: Q04DX003 (ip), vehicle: saline) 100 % of control; (dose: 200.0 mg/kg/injection, schedule: Q04DX003 (ip), vehicle: saline) 100 % of control.

Regarding `CCC(=O)Oc1ccc2c(c1)CC[C@@H]1[C@@H]2CC[C@]2(C)C[C@H](OC(=O)CC)C[C@@H]12`, the T/C by setting is: under setting [2], 100 % of control; under setting [7], 95 % of control; under setting [3], 118 % of control; under setting [8], 100 % of control; (dose: 400.0 mg/kg/injection, schedule: Q01DX009 (ip), vehicle: saline with Tween-80) 118 % of control; (dose: 400.0 mg/kg/injection, schedule: Q04DX003 (ip), vehicle: saline with Tween-80) 90 % of control.

In the case of `COC(=O)c1cccc(OP(=O)(N(C)C)N(C)C)c1`, the T/C under setting [1] is 106 % of control and the T/C under setting [2] is 114 % of control.

Consider `C[N+](C)(C)Cc1ccccc1/C(=N\O)c1ccccc1`, for which the T/C was 109 % of control (dose: 5.0 mg/kg/injection, schedule: Q01DX009 (ip), vehicle: saline) and 91 % of control (dose: 10.0 mg/kg/injection, schedule: Q01DX009 (ip), vehicle: saline).

Turning to `O=C1CCCCCCCCCCC1Cc1cc(O)c(CC2CCCCCCCCCCC2=O)cc1O` (stereo not given), the T/C under setting [1] is 96 % of control, the T/C under setting [2] was 94 % of control and the T/C under setting [3] was 100 % of control.

As to `C=C1C(=O)OC(/C=C(\C)CO)C1C(C/C(C)=C/CO)OC(=O)/C(C)=C\C` (stereo not given), the T/C (dose: 12.5 mg/kg/injection, schedule: Q01DX009 (ip), vehicle: Klucel (hydroxypropylcellulose) (HPC)) was 111 % of control; the T/C (dose: 25.0 mg/kg/injection, schedule: Q01DX009 (ip), vehicle: Klucel (hydroxypropylcellulose) (HPC)) was 111 % of control; the T/C (dose: 50.0 mg/kg/injection, schedule: Q01DX009 (ip), vehicle: Klucel (hydroxypropylcellulose) (HPC)) was 109 % of control; the T/C under setting [9] is 94 % of control; the T/C under setting [10] is 94 % of control.

In the case of `COC(=O)C(C)CN1CCCCC1` (stereo not given), the T/C runs as follows: under setting [4], 105 % of control; under setting [5], 110 % of control; under setting [6], 110 % of control.

Turning to `O=C(NC(=O)c1c(F)cccc1F)Nc1ncc(Cl)cc1Cl`, the T/C reads like this: under setting [1], 90 % of control; under setting [2], 100 % of control; under setting [3], 90 % of control.

Take `CCCCOCN(COCCCC)C(C)Cc1ccccc1` (stereo not given): the T/C under setting [1] is 122 % of control.

Take `Cc1c([N+](=O)[O-])c(C)c([N+](=O)[O-])c(C(C)(C)C)c1[N+](=O)[O-]`: the T/C is, setting by setting: under setting [9], 100 % of control; under setting [11], 87 % of control; under setting [10], 87 % of control; (dose: 200.0 mg/kg/injection, schedule: Q04DX003 (ip), vehicle: Klucel (hydroxypropylcellulose) (HPC)) 87 % of control; (dose: 400.0 mg/kg/injection, schedule: Q01DX009 (ip), vehicle: Klucel (hydroxypropylcellulose) (HPC)) 95 % of control; (dose: 400.0 mg/kg/injection, schedule: Q04DX003 (ip), vehicle: Klucel (hydroxypropylcellulose) (HPC)) 91 % of control.

For the compound `Nc1cc(NC(=O)c2ccc(Cl)cc2)ccc1S(=O)(=O)O`, the T/C by setting is: (dose: 3.12 mg/kg/injection, schedule: Q01DX009 (ip), vehicle: saline) 117 % of control; (dose: 6.25 mg/kg/injection, schedule: Q01DX009 (ip), vehicle: saline) 99 % of control; (dose: 6.25 mg/kg/injection, schedule: Q04DX003 (ip), vehicle: Klucel (hydroxypropylcellulose) (HPC)) 95 % of control; (dose: 12.5 mg/kg/injection, schedule: Q01DX009 (ip), vehicle: saline) 90 % of control; (dose: 12.5 mg/kg/injection, schedule: Q04DX003 (ip), vehicle: Klucel (hydroxypropylcellulose) (HPC)) 106 % of control; (dose: 25.0 mg/kg/injection, schedule: Q01DX009 (ip), vehicle: saline) 87 % of control. The T/C reads like this: (dose: 25.0 mg/kg/injection, schedule: Q04DX003 (ip), vehicle: Klucel (hydroxypropylcellulose) (HPC)) 93 % of control; (dose: 50.0 mg/kg/injection, schedule: Q04DX003 (ip), vehicle: Klucel (hydroxypropylcellulose) (HPC)) 98 % of control; under setting [11], 97 % of control.

With `c1cc2n(n1)CCN2`, the T/C reads like this: (dose: 50.0 mg/kg/injection, schedule: Q01DX009 (ip), vehicle: water) 105 % of control; (dose: 80.0 mg/kg/injection, schedule: Q01DX009 (ip), vehicle: saline) 90 % of control; (dose: 100.0 mg/kg/injection, schedule: Q01DX009 (ip), vehicle: water) 90 % of control; under setting [7], 120 % of control; (dose: 100.0 mg/kg/injection, schedule: Q04DX003 (ip), vehicle: water) 103 % of control; (dose: 120.0 mg/kg/injection, schedule: Q01DX009 (ip), vehicle: saline) 107 % of control. Moreover, the T/C is, setting by setting: (dose: 180.0 mg/kg/injection, schedule: Q01DX009 (ip), vehicle: saline) 112 % of control; (dose: 200.0 mg/kg/injection, schedule: Q01DX009 (ip), vehicle: water) 90 % of control; (dose: 200.0 mg/kg/injection, schedule: Q04DX003 (ip), vehicle: water) 96 % of control; (dose: 400.0 mg/kg/injection, schedule: Q04DX003 (ip), vehicle: water) 121 % of control.

In the case of `C=CC(=O)NCNC(=O)CCBr`, the T/C is 150 % of control under setting [8] and 170 % of control (dose: 300.0 mg/kg/injection, schedule: Q04DX003 (ip), vehicle: saline with Tween-80).

In the case of `CCC12CCCN3C(=O)CC(C(=O)CC1)C32` (stereo not given), the T/C by setting is: (dose: 25.0 mg/kg/injection, schedule: Q04DX003 (ip), vehicle: saline sonified) 95 % of control; (dose: 50.0 mg/kg/injection, schedule: Q04DX003 (ip), vehicle: saline sonified) 109 % of control; (dose: 100.0 mg/kg/injection, schedule: Q04DX003 (ip), vehicle: saline sonified) 109 % of control.
